In patent US20240400560A1, “BICYCLIC HETEROCYCLIC DERIVATIVE HAVING VIRAL GROWTH INHIBITORY ACTIVITY AND PHARMACEUTICAL COMPOSITION CONTAINING SAME” (Shionogi & Co., Ltd., priority 2021, published 2024):
Like-named read-outs stand apart in the source and are kept apart here.

Molecular target: SARS-CoV-2 3CL protease (Severe acute respiratory syndrome coronavirus 2, UniProt P0DTD1)
Test: Inhibitory activity test against SARS-CoV-2 3CL proteases
Type: biochemical
[1] = read-out: IC50 (50% SARS-CoV-2 3CL protease inhibitory concentration)
[2] = IC50 (50% SARS-CoV-2 3CL protease inhibitory concentration)

| Structure (SMILES) | IC50 [1] [nM] | IC50 [2] [nM] |
| --- | --- | --- |
| Cn1c(-c2cc(C#N)ccc2Cl)cc2c(c1=O)c(=O)n(-c1cncc(Cl)c1)c(=O)n2Cc1cc(F)c(F)c(F)c1 [Compound I-0435] | 1 |  |
| COc1cc(-c2cc(CC(N)=O)ccc2Cl)cc2c1c(=O)n(-c1cncc(Cl)c1)c(=O)n2Cc1cc(Cl)ccc1C [Compound I-0191] | < 100 |  |
| COc1cc(-c2cc(NS(C)(=O)=O)ccc2Cl)cc2c1c(=O)n(-c1cncc(Cl)c1)c(=O)n2Cc1cc(F)c(F)c(F)c1 [Compound I-0079] | < 100 |  |
| COc1cc(-c2nc3c(cc2Cl)NC(=O)C3)cc2c1c(=O)n(Cc1ncn(C)n1)c(=O)n2Cc1cc(F)c(F)c(F)c1 [Compound I-0005] | 10 |  |
| O=c1[nH]cccc1Cn1c(=O)c2ccc(N3[C@@H]4CC[C@H]3CNC4)cc2n(Cc2cc(F)c(F)c(F)c2)c1=O [Compound I-0379] |  | < 100 |
| COc1nc(N2C[C@H]3C[C@@H]2CN3)cc2c1c(=O)n(-c1cncc(Cl)c1)c(=O)n2Cc1cc(F)c(F)c(F)c1 [Compound I-0459] | < 100 |  |
| COc1cc(-c2cc(CC(=O)NCCN(C)C)ccc2Cl)cc2c1c(=O)n(-c1cncc(Cl)c1)c(=O)n2Cc1ccc(F)c(C#N)c1 [Compound I-0203] | < 100 |  |
| COc1cc(-c2cnc(N)cc2Cl)cc2c1c(=O)n(Cc1ncn(C)n1)c(=O)n2Cc1cc(F)c(F)c(F)c1 [Compound I-0514] | < 100 |  |
| Cn1cnc(Cn2c(=O)c3c(F)cc(-c4cc(C#N)ccc4Cl)cc3n(Cc3cc(F)c(F)c(Cl)c3)c2=O)n1 [Compound I-0281] | < 100 |  |
| COc1cc(-c2cc(C(C)(C)O)ccc2Cl)cc2c1c(=O)n(-c1cncc(C)c1)c(=O)n2Cc1cc(F)c(F)c(F)c1 [Compound I-0069] | 6 |  |
| Cn1cnc(Cn2c(=O)c3c4c(c(-c5cc(N=S(C)(C)=O)ccc5Cl)cc3n(Cc3cc(F)c(F)c(F)c3)c2=O)CCO4)n1 [Compound I-0472] | < 100 |  |
| Cn1cnc(Cn2c(=O)c3c4c(c(-c5cc(C#N)ccc5Cl)cc3n(Cc3cc(F)c(F)c(F)c3)c2=O)CCO4)n1 [Compound I-0414] | 1.5 |  |
| Cn1cnc(Cn2c(=O)c3c(F)cc(-c4cc5cn[nH]c5cc4Cl)c(F)c3n(Cc3cc(F)c(F)c(F)c3)c2=O)n1 [Compound I-0006] | < 100 |  |
| COc1nc(N2CC[C@@H](OC)C2)cc2c1c(=O)n(Cc1ncn(C)n1)c(=O)n2Cc1cc(F)c(F)c(F)c1 [Compound I-0449] | 37 |  |
| Cn1cnc(Cn2c(=O)c3c(F)cc(-c4cc5c(cc4Cl)NC(=O)C5)cc3n(Cc3cc(F)c(F)c(F)c3)c2=O)n1 [Compound I-0270] | < 100 |  |
| COc1cc(-c2c(Cl)ccc3ncccc23)cc2c1c(=O)n(-c1cncc(C)c1)c(=O)n2Cc1ccc(F)c(C#N)c1 [Compound I-0068] | 5.8 |  |
| COc1cc(-c2cc(CC(=O)NC3CCN(C)CC3)ccc2Cl)cc2c1c(=O)n(-c1cncc(Cl)c1)c(=O)n2Cc1cc(Cl)ccc1C [Compound I-0187] | 5 |  |
| Cn1cnc(Cn2c(=O)c3c(F)c(Cl)c(-c4cc5c(cc4Cl)NC(=O)C5)cc3n(Cc3cc(F)c(F)c(Cl)c3)c2=O)n1 [Compound I-0492] | < 100 |  |
| COc1cc(-c2cc(S(C)(=N)=O)ccc2Cl)cc2c1c(=O)n(Cc1ncn(C)n1)c(=O)n2Cc1cc(F)c(F)c(F)c1 (centres unmarked) [Compound I-0207] | 23 |  |
| Cn1cnc(Cn2c(=O)c3c(=O)[nH]c(-c4cc(C#N)ccc4Cl)cc3n(Cc3cc(F)c(F)c(F)c3)c2=O)n1 [Compound I-0177] | 34 |  |

| Structure (SMILES) | IC50 [1] [nM] | IC50 [2] [nM] |
| --- | --- | --- |
| CC(C)Nc1cc2c(c(=O)n(Cc3ncn(C)n3)c(=O)n2Cc2cc(F)c(F)c(F)c2)c2ncn(C)c12 [Compound I-0553] | 100 to 1000 |  |
| Cn1cnc(Cn2c(=O)c3c(=O)n(C)c(-c4cc(C#N)ccc4Cl)cc3n(Cc3cc(F)c(F)c(Cl)c3)c2=O)n1 [Compound I-0162] | 0.8 |  |
| Cn1cnc(Cn2c(=O)c3cc(F)c(-c4cc5c(cc4Cl)NC(=O)C5)cc3n(Cc3cc(F)c(F)c(F)c3)c2=O)n1 [Compound I-0249] | 33 |  |
| COc1cc(-c2cc(NS(C)(=O)=O)ccc2Cl)cc2c1c(=O)n(Cc1ncn(C)n1)c(=O)n2Cc1cc(F)c(F)c(F)c1 [Compound I-0136] | < 100 |  |
| Cn1cnc(Cn2c(=O)c3c(F)cc(-c4nc5c(cc4Cl)NC(=O)C5)cc3n(Cc3cc(F)c(F)c(F)c3)c2=O)n1 [Compound I-0009] | 21 |  |
| Cn1cnc(Cn2c(=O)c3c4c(c(-c5cc6c(cc5Cl)NC(=O)C6)cc3n(Cc3cc(F)c(F)c(F)c3)c2=O)CCO4)n1 [Compound I-0353] | 0.45 |  |
| COc1cc(-c2cc3c[nH]nc3cc2Cl)cc2c1c(=O)n(Cc1ncn(C)n1)c(=O)n2Cc1cc(F)c(F)c(F)c1 [Compound I-0115] | 9.3 |  |
| COc1cc(-c2cc(CC(=O)NC3CCN(C)CC3)ccc2Cl)cc2c1c(=O)n(-c1cncc(Cl)c1)c(=O)n2Cc1cc(F)c(F)c(F)c1 [Compound I-0197] | < 100 |  |
| Cn1cnc(Cn2c(=O)c3c(cc(-c4cc(C#N)ccc4Cl)n4cnnc34)n(Cc3cc(F)c(F)c(F)c3)c2=O)n1 [Compound I-0644] | < 100 |  |
| Cn1cnc(Cn2c(=O)c3c(F)cc(-c4cc5c(cc4Cl)NC(=O)C5)c(F)c3n(Cc3cc(F)c(F)c(F)c3)c2=O)n1 [Compound I-0002] | 6.2 |  |
| COc1cc(-c2cc(C(C)=O)ccc2Cl)cc2c1c(=O)n(Cc1ncn(C)n1)c(=O)n2Cc1cc(F)c(F)cc1F [Compound I-0282] | < 100 |  |
| N#Cc1ccc(Cl)c(-c2cc3c(c4c2CCO4)c(=O)n(Cc2ncccn2)c(=O)n3Cc2cc(F)c(F)c(F)c2)c1 [Compound I-0442] | < 100 |  |
| COc1cc(-c2cc(C3COC3)ccc2Cl)cc2c1c(=O)n(Cc1ncn(C)n1)c(=O)n2Cc1cc(F)c(F)c(F)c1 [Compound I-0283] | 32 |  |
| COc1cc(-c2cc(C(=O)NCCNCCO)ccc2Cl)cc2c1c(=O)n(Cc1ncn(C)n1)c(=O)n2Cc1cc(F)c(F)c(F)c1 [Compound I-0216] | < 100 |  |
| NC(=O)c1ccc(Cl)c(-c2nc3c(cc2F)c(=O)n(Cc2ccc[nH]c2=O)c(=O)n3Cc2cc(F)c(F)c(F)c2)c1 [Compound I-0301] | 98 |  |
| Cn1cnc(Cn2c(=O)c3c4c(c(N5C[C@H]6C[C@@H]5CN6)cc3n(Cc3cc(F)c(F)c(F)c3)c2=O)CCO4)n1 [Compound I-0429] | < 100 |  |
| COc1cc(-c2cc(CC(=O)NC3CCN(C)CC3)ccc2Cl)cc2c1c(=O)n(-c1cncc(Cl)c1)c(=O)n2Cc1ccc(F)c(C#N)c1 [Compound I-0201] | < 100 |  |
| COc1cc(-c2cc(-c3ncc[nH]3)ccc2Cl)cc2c1c(=O)n(-c1cncc(Cl)c1)c(=O)n2Cc1ccc(F)c(C#N)c1 [Compound I-0120] | < 100 |  |
| Cn1cnc(Cn2c(=O)c3c4c(c(N5CC[C@@H](O)C5)cc3n(Cc3cc(F)c(F)c(F)c3)c2=O)CCO4)n1 [Compound I-0415] | < 100 |  |
| COc1cc(-c2cc(CC(=O)N3CC[C@H](N)C3)ccc2Cl)cc2c1c(=O)n(-c1cncc(Cl)c1)c(=O)n2Cc1cc(F)c(F)c(F)c1 [Compound I-0211] | < 100 |  |

| Structure (SMILES) | IC50 [1] [nM] | IC50 [2] [nM] |
| --- | --- | --- |
| O=c1[nH]cccc1Cn1c(=O)c2ccc(N3[C@@H]4CNC[C@H]3COC4)cc2n(Cc2cc(F)c(F)c(F)c2)c1=O [Compound I-0381] |  | < 100 |
| Cn1cnc(Cn2c(=O)c3ncc(-c4cc5c(cc4Cl)NC(=O)C5)cc3n(Cc3cc(F)c(F)c(Cl)c3)c2=O)n1 [Compound I-0121] | < 100 |  |
| Cn1cnc(Cn2c(=O)c3ccc(N4C[C@H]5C[C@@H]4CN5)cc3n(Cc3cc(F)c(F)c(F)c3)c2=O)n1 [Compound I-0393] | < 100 |  |
| COc1cc(-c2cc(C(C)=O)ccc2Cl)cc2c1c(=O)n(-c1cncc(C)c1)c(=O)n2Cc1ccc(F)c(C#N)c1 [Compound I-0062] | 3.1 |  |
| [2H]C1([2H])N(c2cc3c(c(OC)n2)c(=O)n(Cc2ncn(C)n2)c(=O)n3Cc2cc(F)c(F)c(F)c2)C([2H])([2H])C([2H])([2H])C1([2H])[2H] [Compound I-0466] | < 100 |  |
| COc1cc(-c2cc(CC(N)=O)ccc2Cl)cc2c1c(=O)n(-c1cncc(Cl)c1)c(=O)n2Cc1cc(F)c(F)c(F)c1 [Compound I-0206] | < 100 |  |
| CNC(=O)Cn1c(=O)c2c3c(c(-c4cc(C#N)ccc4Cl)cc2n(Cc2cc(F)c(F)c(F)c2)c1=O)CCO3 [Compound I-0443] | < 100 |  |
| COc1nc(-c2cc(C#N)ccc2Cl)cc2c1c(=O)n(-c1cncc(Cl)c1)c(=O)n2Cc1cc(F)c(F)c(F)c1 [Compound I-0178] | < 100 |  |
| COc1cc(-c2cc(CC(=O)NCCS(C)(=O)=O)ccc2Cl)cc2c1c(=O)n(-c1cncc(Cl)c1)c(=O)n2Cc1cc(F)c(F)c(F)c1 [Compound I-0202] | 20 |  |
| COc1cc(-c2nc(NS(C)(=O)=O)ccc2Cl)cc2c1c(=O)n(-c1cncc(C)c1)c(=O)n2Cc1cc(F)c(F)c(F)c1 [Compound I-0078] | < 100 |  |
| COc1cc(-c2cc(CN=S(C)(C)=O)ccc2Cl)cc2c1c(=O)n(Cc1ncn(C)n1)c(=O)n2Cc1cc(F)c(F)c(F)c1 [Compound I-0363] | 35 |  |
| COc1cc(-c2nc3[nH]c(=O)[nH]c3cc2Cl)cc2c1c(=O)n(Cc1ncn(C)n1)c(=O)n2Cc1cc(F)c(F)c(F)c1 [Compound I-0001] | 5.3 |  |
| Cc1cncc(-n2c(=O)c3c(F)cc(-c4cc(C#N)ccc4Cl)cc3n(Cc3ccc(F)c(C#N)c3)c2=O)c1 [Compound I-0050] | < 100 |  |
| O=C1Cc2cc(-c3cc(F)c4c(=O)n(-c5cncc(Cl)c5)c(=O)n(Cc5cc(F)c(F)c(F)c5)c4c3)c(Cl)cc2N1 [Compound I-0071] | < 100 |  |
| Cn1cnc(Cn2c(=O)c3c(=O)[nH]c(-c4cc(C#N)ccc4Cl)cc3n(Cc3cc(F)c(F)c(Cl)c3)c2=O)n1 [Compound I-0172] | < 100 |  |
| COc1cc(-c2cc(CO)ccc2Cl)cc2c1c(=O)n(-c1cncc(C)c1)c(=O)n2Cc1cc(F)c(F)c(F)c1 [Compound I-0030] | 8.5 |  |
| CC1Cc2c(-c3cc(C#N)ccc3Cl)cc3c(c2O1)c(=O)n(Cc1ncn(C)n1)c(=O)n3Cc1cc(F)c(F)c(F)c1 (centres unmarked) [Compound I-0439] | 4.7 |  |
| COc1nc(N2CC[C@H](F)C2)cc2c1c(=O)n(Cc1ncn(C)n1)c(=O)n2Cc1cc(F)c(F)c(F)c1 [Compound I-0446] |  | < 100 |
| COc1nc(N2C[C@H]3C[C@@H]2CN3)cc2c1c(=O)n(Cc1ncn(C)n1)c(=O)n2Cc1cc(F)c(F)c(F)c1 [Compound I-0389] | 1.9 |  |
